The structures appear in SMILES notation.

IC50 data for nine compounds are collected here from patent publication US20250243210A1, “CRBN E3 LIGASE LIGAND COMPOUND, PROTEIN DEGRADER DEVELOPED BASED THEREON AND THEIR APPLICATIONS” (GLUETACS THERAPEUTICS (SHANGHAI) CO., LTD., priority 2021, published 2025).

human Cereblon WT GST-tagged protein, sequence (Q96SW2 whole entry): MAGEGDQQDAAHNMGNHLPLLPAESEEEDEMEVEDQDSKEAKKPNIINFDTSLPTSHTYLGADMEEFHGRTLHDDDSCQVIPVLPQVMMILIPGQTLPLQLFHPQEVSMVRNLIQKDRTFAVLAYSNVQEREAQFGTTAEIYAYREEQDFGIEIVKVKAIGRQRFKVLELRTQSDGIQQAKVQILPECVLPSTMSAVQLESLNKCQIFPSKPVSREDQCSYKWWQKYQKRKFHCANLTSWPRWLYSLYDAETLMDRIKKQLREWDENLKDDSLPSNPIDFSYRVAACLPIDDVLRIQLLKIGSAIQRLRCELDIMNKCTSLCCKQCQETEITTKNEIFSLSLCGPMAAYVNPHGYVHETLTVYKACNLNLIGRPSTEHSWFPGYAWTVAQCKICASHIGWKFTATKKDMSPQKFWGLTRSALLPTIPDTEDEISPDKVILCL

The assay concerns the target human Cereblon WT GST-tagged protein (Homo sapiens (Human), UniProt Q96SW2). Put plainly: CRBN binding, HTRF (CEREBLON BINDING kit). As to the method: Determination of CRBN-Binding Affinity of Compounds
The CEREBLON BINDING kits (specification: 10,000 tests; product number: Catalog #64BDCRBNPEH; CISBIO company) was used to determine the CRBN binding ability of the compounds to be tested through a HTRF method (homogeneous time-resolved fluorescence). The specific methods are as follows: • 1. […] Then, 2.5 μL of (human Cereblon WT GST-tagged protein) solution was added to each well. Finally, 5 μL of the uniformly mixed thalidomide-Red reagent and GST Eu antibody working solution were added to each of the above wells. […] The blank control wells were sequentially added with 2.5 μL of diluent #9 (1×) solution, 2.5 μL of ligand binding buffer, and 5 μL of uniformly mixed thalidomide-Red reagent and GST Eu antibody working solution. • 4. […] The corresponding CRBN binding inhibition rate was calculated using the following method: […]
One may read the IC50 as the concentration needed to halve the response being measured. For the compound `O=C1CCC(N2C(=O)c3ccc(N4CC5CC(C4)N5)cc3C2=O)C(=O)N1` (stereo not drawn) [GT-03075, 5-(3,6-diazabicyclo[3.1.1]heptan-3-yl)-2-(2,6-dioxopiperidin-3-yl)isoindoline-1,3-dione], the 50% inhibitory concentration (IC50) was determined as 5.09 µM. Regarding `O=C1CCC(N2C(=O)c3ccc(N4CC5CCC4CN5)cc3C2=O)C(=O)N1` (stereo not drawn) [GT-03076, 5-(2,5-diazabicyclo[2.2.2]octan-2-yl)-2-(2,6-dioxopiperidin-3-yl)isoindoline-1,3-dione], the IC50 is 0.65 µM.

In turn, `O=C1CCC(N2C(=O)c3ccc(N4CC5CCC(C4)N5)cc3C2=O)C(=O)N1` (stereo not drawn) [GT-03077, 5-(3,8-diazabicyclo[3.2.1]octan-3-yl)-2-(2,6-dioxopiperidin-3-yl)isoindoline-1,3-dione] had a concentration for half-maximal inhibition (IC50) of 5.2 µM. In the case of `O=C1CCC(N2C(=O)c3ccc(N4C5CNCC4C5)cc3C2=O)C(=O)N1` (stereo not drawn) [GT-03100, 5-(3,6-diazabicyclo[3.1.1]heptan-6-yl)-2-(2,6-dioxopiperidin-3-yl)isoindoline-1,3-dione] it was 9.8 µM. In turn, `O=C1CCC(N2C(=O)c3cc(F)c(N4C5CNCC4C5)cc3C2=O)C(=O)N1` (stereo not drawn) [GT-03106, 5-(3,6-diazabicyclo[3.1.1]heptan-6-yl)-2-(2,6-dioxopiperidin-3-yl)-6-fluoroisoindoline-1,3-dione] displayed an IC50 of 4.04 µM. Compound `[2H]C1([2H])NC([2H])([2H])C([2H])([2H])N(c2cc3c(cc2F)C(=O)N(C2CCC(=O)NC2=O)C3=O)C1([2H])[2H]` (stereo not drawn) [GT-03108, 2-(2,6-dioxopiperidin-3-yl)-5-fluoro-6-(piperazin-1-yl-2,2,3,3,5,5,6,6-d8)isoindoline-1,3-dione] yielded an IC50 of 8.75 µM.

With `O=C1CCC(N2C(=O)c3cc(F)c(N4CC5CC(C4)N5)cc3C2=O)C(=O)N1` (stereo not drawn) [GT-03109, 5-(3,6-diazabicyclo[3.1.1]heptan-3-yl)-2-(2,6-dioxopiperidin-3-yl)-6-fluoroisoindoline-1,3-dione], the IC50 turned out to be 3.55 µM.

Turning to `O=C1CCC(N2C(=O)c3ccc(N4C5CCC4CNC5)cc3C2=O)C(=O)N1` (stereo not drawn) [GT-03210, 5-(3,8-diazabicyclo[3.2.1]octan-8-yl)-2-(2,6-dioxopiperidin-3-yl)isoindoline-1,3-dione], the IC50 worked out at 2.69 µM. For `O=C1CCC(N2C(=O)c3cc(F)c(N4C5CCC4CNC5)cc3C2=O)C(=O)N1` (stereo not drawn) [GT-03211, 5-(3,8-diazabicyclo[3.2.1]octan-8-yl)-2-(2,6-dioxopiperidin-3-yl)-6-fluoroisoindoline-1,3-dione], the half-inhibitory concentration (IC50) amounted to 9.8 µM.
